Some test systems named below: IGROV1 ovarian; HCT-15 colon; OVCAR-3 ovarian; U251 CNS; M14 melanoma; SR leukemia; SF-295 CNS; SNB-75 CNS; A498 renal; SK-MEL-2 melanoma.
What all share (experiment): DTP human tumour cell line panel, 48 h

The structures appear in SMILES notation. Several values for one entry are separate records, joined by “and”; a condition that tells them apart may be missing. Identical values can stand only once.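 Interpolation was linear, between the two tested concentrations surrounding the appropriate level; five concentrations were tested over 48 hours in 96-well plates. GI50 is the concentration that inhibits growth by half. TGI: total growth inhibition.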

As to `CC[C@@]1(O)C(=O)OCc2c1cc1n(c2=O)Cc2c-1nc1cc3c(cc1c2C)OCO3`, the concentration for 50% growth inhibition (GI50) with IGROV1 ovarian was 0.0351 µM; in the test on HCT-15 colon, 0.00936 µM; with OVCAR-3 ovarian, 0.0758 µM and 0.0117 µM; in the test with U251 CNS, below 0.0001 µM; in the test on M14 melanoma, below 0.0001 µM; with SR leukemia, below 0.0001 µM. The GI50 in the test with SF-295 CNS was below 0.0001 µM; with SNB-75 CNS, 0.00123 µM; with A498 renal, 0.000257 µM. In addition, the TGI was above 100 µM in the test with HCT-15 colon; above 100 µM with OVCAR-3 ovarian; 1.01 µM in the test with M14 melanoma; 0.000207 µM in the test on SR leukemia; 0.947 µM with SNB-75 CNS; 0.0272 µM and 0.0285 µM with A498 renal. Also, the concentration for total growth inhibition (TGI) in the test with SK-MEL-2 melanoma worked out at 0.0271 µM.

Turning to `C=C(CN1CCN(c2cccc(C(F)(F)F)n2)CC1)c1ccc(C(=S)Nc2ccccc2N)cc1`, the GI50 was 6.93 µM with IGROV1 ovarian; 4.11 µM with HCT-15 colon; 4.34 µM with OVCAR-3 ovarian; 3.77 µM with U251 CNS; 3.81 µM with M14 melanoma; 2.44 µM in the test with SR leukemia. The GI50 in the test with SF-295 CNS was 3.48 µM; in the test on SNB-75 CNS, 5.71 µM; in the test with A498 renal, 2.57 µM; with SK-MEL-2 melanoma, 4.13 µM. For the same compound, the concentration for total growth inhibition (TGI) in the test on IGROV1 ovarian is above 100 µM; in the test with HCT-15 colon it was above 100 µM; with OVCAR-3 ovarian it was above 100 µM; in the test on U251 CNS it was 38.5 µM; with M14 melanoma, 41.3 µM; with SR leukemia, 6.49 µM. Moreover, the total growth inhibition concentration (TGI) in the test on SF-295 CNS, in the test on SNB-75 CNS, in the test with A498 renal and in the test on SK-MEL-2 melanoma was above 100 µM each time.

Consider `C/C(=C\COc1c2c(cc3c1CCO3)OC1(C=C2)OC(CC/C(C)=C/COc2c3ccoc3cc3oc(=O)ccc23)C(C)(C)O1)CCC(O)C(C)(C)O` (stereo not drawn), for which the GI50 in the test on HCT-15 colon was 85 µM; in the test with OVCAR-3 ovarian, 15 µM; in the test with U251 CNS it was 44.4 µM; in the test with M14 melanoma, 85.1 µM; in the test on SR leukemia, 5.04 µM; in the test on SF-295 CNS, 9.09 µM. Also, the GI50 in the test on SNB-75 CNS was 21.1 µM; in the test on A498 renal, 32.8 µM; in the test on SK-MEL-2 melanoma, 9.58 µM. The concentration for total growth inhibition (TGI) with HCT-15 colon, in the test on OVCAR-3 ovarian, in the test with U251 CNS, in the test with M14 melanoma, in the test with SR leukemia and with SF-295 CNS was above 100 µM throughout. Besides, the concentration for total growth inhibition (TGI) in the test with SNB-75 CNS, in the test with A498 renal and in the test with SK-MEL-2 melanoma was above 100 µM in each case.

With `O=C(NN=C1CCCCC1)c1[nH]c2ccc(F)cc2c1-c1ccccc1`, the GI50 is 65.9 µM with IGROV1 ovarian; 15.6 µM in the test with HCT-15 colon; 21.8 µM in the test on OVCAR-3 ovarian; 17.8 µM in the test on U251 CNS; 12.9 µM in the test on SR leukemia; 33.6 µM with SF-295 CNS. Also, the GI50 in the test with SNB-75 CNS is 19.6 µM; with A498 renal, 38.1 µM; in the test with SK-MEL-2 melanoma it was above 100 µM. The total growth inhibition concentration (TGI) in the test with IGROV1 ovarian was above 100 µM; in the test on HCT-15 colon, 50.9 µM; in the test with OVCAR-3 ovarian, above 100 µM; with U251 CNS it was 37.7 µM; in the test with SR leukemia it was 41.9 µM; in the test with SF-295 CNS, above 100 µM. The results for the TGI with SNB-75 CNS, in the test on A498 renal and with SK-MEL-2 melanoma were 58.1 µM, above 100 µM and above 100 µM, respectively.

Consider `Cc1nn(-c2nc3ccccc3s2)c2c1C(=O)c1ccccc1-2`, for which the TGI in the test with IGROV1 ovarian, in the test with HCT-15 colon, in the test on OVCAR-3 ovarian, in the test on U251 CNS, in the test with M14 melanoma and in the test with SR leukemia was above 100 µM in each case. Besides, the concentration for total growth inhibition (TGI) with SF-295 CNS, with SNB-75 CNS, with A498 renal and in the test on SK-MEL-2 melanoma was above 100 µM throughout.

Consider `CCCCCCCCCCCCCCCCOP(=O)(O)OP(=O)(O)OCC1OC(n2ccc(N)nc2=O)C(O)C1O` (stereo not drawn), for which the concentration for total growth inhibition (TGI) with IGROV1 ovarian is above 100 µM; with HCT-15 colon, above 100 µM; in the test with OVCAR-3 ovarian, above 100 µM; with U251 CNS it was above 100 µM; with M14 melanoma it was > 100 µM and 98.4 µM; with SR leukemia, above 100 µM. The TGI in the test on SF-295 CNS, with SNB-75 CNS, with A498 renal and in the test on SK-MEL-2 melanoma was above 100 µM throughout. The GI50 in the test on SF-295 CNS was > 100 µM and 46 µM; in the test on SNB-75 CNS, above 100 µM; with A498 renal it was above 100 µM.

With `COC(=O)/C=C/c1cn(C(C)=O)c2ccc(Br)cc12`, the GI50 in the test with IGROV1 ovarian is 19.1 µM; in the test on HCT-15 colon it was 23.4 µM; with OVCAR-3 ovarian it was 23.9 µM; in the test with U251 CNS, 28.2 µM; in the test on M14 melanoma, 28.5 µM; in the test with SR leukemia it was 32.5 µM. Also, the GI50 in the test with SF-295 CNS is 16.1 µM; in the test with SNB-75 CNS, 16.1 µM; in the test with A498 renal, 20.9 µM; in the test on SK-MEL-2 melanoma, 29.5 µM. The total growth inhibition concentration (TGI) in the test with IGROV1 ovarian, with HCT-15 colon, in the test on OVCAR-3 ovarian, in the test with U251 CNS, with M14 melanoma and in the test with SR leukemia was above 100 µM each time. Moreover, the TGI with SF-295 CNS was 40.1 µM; with SNB-75 CNS, 55.2 µM; with A498 renal it was 45.7 µM; in the test on SK-MEL-2 melanoma, above 100 µM.

In the case of `COc1ccc(CNc2nc3cc(N)cc(N)c3nc2-c2ccccc2)cc1`, the GI50 is 12.9 µM with IGROV1 ovarian; 15.9 µM in the test with HCT-15 colon; 2.23 µM in the test with OVCAR-3 ovarian; 13.6 µM with U251 CNS; 18.1 µM with M14 melanoma; 4.09 µM in the test with SR leukemia. In addition, the GI50 is 17.8 µM in the test on SF-295 CNS, above 100 µM in the test with A498 renal and 14.7 µM in the test with SK-MEL-2 melanoma. In addition, the concentration for total growth inhibition (TGI) in the test with IGROV1 ovarian is 27.1 µM; in the test with HCT-15 colon, 34.5 µM; with OVCAR-3 ovarian, 7.77 µM; in the test on U251 CNS it was 26.5 µM; in the test with M14 melanoma, 32.2 µM; with SR leukemia, above 100 µM. For the same compound, the TGI in the test with SF-295 CNS was 32.4 µM; in the test on A498 renal, above 100 µM; with SK-MEL-2 melanoma it was 29.1 µM.

For orientation: GI50 means the concentration at which growth is held to half of that of the control. For orientation: TGI means the concentration at which net growth stops.

The values are drawn from PubChem BioAssay (NCI).
